From patent publication US10265284B2, “Composition for use in the treatment of intervertebral disc-related pain” (STAYBLE THERAPEUTICS AB, priority 2015, dated 2019)

Assays:
Format in all cases: in vivo, pig
[1] = test system: nucleus pulposus of the L3-4 intervertebral disc; experiment: Dimension of the disc space after injection, Example 1
Description: 110. performing a cross-section of the discs and measuring the length (anterio-posterior direction) and the width (bilateral direction) of the disc space. Two pigs were anesthetized and placed on their right side. Access to the L4-5 intervertebral disc was obtained through a lateral incision between the lowest rib and the iliac crest on the left side of each pig. Thereafter, the L3-4 intervertebral disc was incised with a scalpel. […] The composition was injected in a single step at a single occasion. The intervertebral discs (L2-3, L3-4, L4-5) were cross-sectioned and the length of the disc space (anterio-posterior direction) and the width (bilateral direction) of the disc space were measured by calipers. In FIGS. 5 and 6, an intervertebral disc is schematically shown in cross-section. The intervertebral disc comprises the annulus fibrosus 10, and a disc space defined by the annulus fibrosus and comprising the nucleus pulposus 11.

[2] = test system: nucleus pulposus of the L3-4 intervertebral disc; experiment: Flexion stiffness of the injected L3-4 intervertebral disc, Example 1; conditions: injected L 3-4 vs non-injected L 2-3 and L 4-5; seven days
Description: Access to the L4-5 intervertebral disc was obtained through a lateral incision between the lowest rib and the iliac crest on the left side of each pig. Thereafter, the L3-4 intervertebral disc was incised with a scalpel. […] The composition was injected in a single step at a single occasion.

[3] = Tolerability and adverse reactions after intradiscal injection, Example 1
Description: Two pigs were anesthetized and placed on their right side. Access to the L4-5 intervertebral disc was obtained through a lateral incision between the lowest rib and the iliac crest on the left side of each pig. Thereafter, the L3-4 intervertebral disc was incised with a scalpel.
The composition was injected in a single step at a single occasion.
At harvest, the pigs were killed.
The injection site was observed by the naked eye. […] The segment of the vertebral column extending from the lumbar vertebra L2 to the sacral vertebra S1 was removed. The facet joints were removed, thus allowing full flexibility of the discs with no restraints from other structures.

[4] = injected L 3-4 vs non-injected L2-3, L4-5, seven days

Compound: CC(O)C(=O)O (stereo not drawn) [lactic acid]
- Cross-sectional area of the disc space compared with non-injected discs ([1]; FIG. 7, injected L3-4 vs non-injected L2-3 and L4-5, naked eye): much smaller cross-sectional area
- Average anterio-posterior length of the disc space compared with non-injected discs [1, 4]: significantly lower
- Average bilateral width of the disc space compared with non-injected discs [1, 4]: significantly lower
- Balanced value (flexion stiffness) of injected discs compared with non-injected adjacent discs [2]: much smaller balanced value
- Adverse reaction such as decreased mobility or vocalization ([3]; both pigs, period of seven days until harvest, 0.2 mL of 1.34 mol/L, pH 1.8, into L3-4 disc): no adverse reaction
- Adverse reaction at the injection site, such as bleedings, inflammation or necrosis ([3]; naked eye at harvest, seven days after injection): No adverse reaction at the injection site
